Measurements from patent publication US20250163078A1, “IMIDAZOPYRIDAZINE DERIVATIVE, AND PREPARATION METHOD THEREFOR, PHARMACEUTICAL COMPOSITION THEREOF AND USE THEREOF” (SHANGHAI SIMR BIOTECHNOLOGY CO., LTD., priority 2022, published 2025).

Tests used:
α2-GABAA receptor [1] = biological target: T1, α2-GABAA receptor (Homo sapiens, UniProt P18507+P47869); experiment: Radioligand (3H-flunitrazepam) competitive binding assay at the BZD site; details: membranes of HEK293 cells stably expressing human α2-GABAA receptor (α2β3γ2); 1 nM 3H-flunitrazepam; Ki calculated from IC50; read-out: α2 Ki
T1 construct: expressed in transfected cells
From the text: (§1) An α subunit, a β subunit, and a γ subunit are essential for the formation of a complete functional GABAA receptor. […] The α1-GABAAR-HEK293 cell model simultaneously expressed the α1 subunit (protein sequence available in GenBank with an accession No.: NM_000806.5), the β3 subunit (protein sequence available in GenBank with an accession No.: NM_000814.5), and the γ2 subunit (protein sequence available in GenBank with an accession No.: NM_000816.3). The α2-GABAAR-HEK293 cell model simultaneously expressed the α2 subunit (protein sequence available in GenBank with an accession No.: NM_000807.4), the β3 subunit (protein sequence available in GenBank with an accession No.: NM_000814.5), and the γ2 subunit (protein sequence available in GenBank with an accession No.: NM_000816.3).
(§2) The above cell lines were subcultured. The α2-GABAAR-HEK293 cells were expanded for assay of the benzodiazepine (BZD) site affinity of compounds for GABAA receptors.
The affinity of the compounds for the α2-GABAA receptor was determined by competing with ^3H-flunitrazepam (isotope ^3H-labelled flunitrazepam) for binding to the BZD site on the membrane proteins of HEK293 cells stably expressing the human α2-GABAA receptor.
Membrane preparation: The cells were suspended in 50 mM Tris-HCl buffer (pH=7.4), homogenized 10 times (20 s for each time) with a homogenizer on ice, and then centrifuged at 4° C. at 1000 g for 10 min. The supernatant was taken. The above steps were repeated. The supernatant was centrifuged (33800 g; Thermo, rotor: A27-8×50) at 4° C. for 60 min. The pellet was resuspended in Tris buffer (50 mM Tris-HCl, 10 mM MgCl2, 0.5 mM EDTA, and 10% glycerol). The protein content was determined (BCA (bicinchoninic acid) protein quantification assay based on the copper ion reduction method, with a BCA kit purchased from Pierce (Annoron (Beijing) Biotechnology Co., Ltd.)), and 1 mL aliquots were prepared and stored at −80° C.
Radioligand competitive binding assay: This assay was performed in a 200 μL system (96-well plate) containing 100 μL of cell membranes. The concentration of ^3H-flunitrazepam was 1 nM, and the concentrations of the test compounds were in the range of […]. Flumazenil was used as a control. To each low control (LC) well was added 1 μL of 2 mM flumazenil (the final concentration of 10 μM), and to each high control (HC) well was added 1 μL of dimethyl sulfoxide. The final concentration of the target membrane protein was […]. All sample stock solutions of test compounds were 10 mM solutions in dimethyl sulfoxide. All the samples were diluted to a concentration of 0.2 mM with dimethyl sulfoxide, and then subjected to a 4-fold serial dilution to give a total of 8 working concentration gradients. The 96-well plate was sealed with a plate sealing membrane and then incubated on a shaker at room temperature for 1 h. Meanwhile, a GF/C filter plate was soaked in a plate soaking buffer (0.3% PEI (polyethyleneimine, purchased from: Sigma-Aldrich, model: P314), stored at 4° C.) for at least 0.5 h. After the binding incubation was completed, the cells were harvested onto the GF/C filter plate using a cell harvester and washed 4 times with a washing buffer (50 mM Tris-HCl, pH 7.4, stored at 4° C.). After drying in an oven at 50° C. for 1 h, the dried GF/C filter plate was bottom-sealed. The residual radioactivity on the filter membrane was detected by liquid scintillation counting. Scintillation fluid was added at 50 µL/well, and then the plate was sealed. Readings were taken using Microbeta^2 (microplate counter, purchased from: PerkinElmer, model: CNLL0153). The inhibitory activity of the test samples on the binding of ^3H-flunitrazepam to the GABAA receptor membrane protein was calculated.

α1-GABAA receptor = biological target: T2, α1-GABAA receptor (Homo sapiens, UniProt P14867+P18507); experiment: Whole-cell patch-clamp electrophysiological test of positive allosteric modulation, α1-GABAAR-HEK293 cells; type: cell-based; details: compound 100 nM; GABA about EC2-4; normalised to positive compound CVL-865 (=100%); negative value = reverse allosteric modulation; read-out: Positive allosteric modulation activity on α1-GABAAR
T2 construct: expressed in transfected cells
From the text: as §1, §2
(§3) The positive regulation activity of the test drugs on the α1-GABAA receptor and the α2-GABAA receptor was detected by the electrophysiological method. The specific method was as follows:
(§4) Compound concentration setting: the final concentration of the compounds used for screening was 100 nM. […] The components of the extracellular solution (ECS) for electrophysiology were as follows: 150 mM NaCl, 5 mM KCl, 2.5 mM CaCl2, 1 mM MgCl2, 10 mM HEPES, and 10 mM glucose (pH 7.4); the formulation of the intracellular solution (ICS) of electrodes for electrophysiology was as follows: 140 mM CsCl, 11 mM EGTA, 10 mM HEPES, 2 mM CaCl2, 1 mM MgCl2, 4 mM MgATP, and 2 mM TEA (pH 7.3). GABA (γ-aminobutyric acid) powder was prepared into a mother liquor with pure water, which was then diluted in ECS; the compounds were first prepared into 4 mM mother liquors with dimethyl sulfoxide and then gradually diluted to corresponding concentrations in GABA-ECS. The solutions were all prepared freshly prior to the electrophysiological test.
(§5) Electrophysiological signal acquisition was performed using an EPC 10 amplifier and PatchMaster software (HEKA) or an Axon700B amplifier and Clampex software (AXON).
(§6) The recording electrode was made by pulling borosilicate glass, with an electrode resistance of 4-6 MΩ. Extracellular administration was performed using the ALA-VC-8PG™ system. A single, independently growing cell was selected. After the glass electrode formed a good seal with the cell, the membrane was ruptured to form the whole-cell configuration. The cell membrane potential was clamped at −60 mV and recorded in Gap-free mode. During the test, the extracellular solution was first applied extracellularly for about 20 s. After the baseline (Iprebaseline) stabilized, the extracellular solution was switched to GABA-ECS. At this time, the current caused by GABA (Igaba) could be detected. After about 10-20 s, when the current stabilized, the extracellular solution was switched to a mixed solution of the compound and GABA-ECS. At this point, the current caused by both the compound and GABA (Itreatment) could be detected. Finally, the solution was switched to the extracellular solution, and the test was terminated after recording for 20-40 s.
(§7) The current values at each stage were calculated based on the average value of the current after stabilization under the corresponding conditions. We defined the control current as Igaba−Iprebaseline, and the current after compound treatment as Itreatment−Iprebaseline. The allosteric modulation activity of the compounds was expressed as a percentage, calculated by the following formula: functional activity=[(Itreatment−Igaba)/(Igaba−Iprebaseline)]×100%.

α2-GABAA receptor [2] = biological target: T1, α2-GABAA receptor; experiment: Whole-cell patch-clamp electrophysiological test of positive allosteric modulation, α2-GABAAR-HEK293 cells; type: cell-based; details: compound 100 nM; GABA 0.10-0.11 M [sic] (about EC70.8); normalised to positive compound CVL-865 (=100%); read-out: Positive allosteric modulation activity on α2-GABAAR
From the text: as §1, §2, §3, §4, §5, §6, §7

Structure (SMILES) | Ki (α2-GABAA receptor [1]) | activation at 0.1 µM (α1-GABAA receptor) | activation at 0.1 µM (α2-GABAA receptor [2])
CCn1cnc2c(-c3ccc(F)c(-c4ccn5c(C6CC6)nnc5c4COC)c3)cnnc21 [Example 1, 4-(3-(3-Cyclopropyl-8-(methoxymethyl)-[1,2,4]triazolo[4,3-a]pyridin-7-yl)-4-fluorophenyl)-7-ethyl-7H-imidazo[4,5-c]pyridazine] | 10.5 nM | 70% | 129%
CCn1cnc2c(-c3ccc(F)c(-c4ccn5c(C6CC(OC)C6)nnc5c4OC)c3)cnnc21 (centres unmarked) [Example 6, 7-Ethyl-4-(4-fluoro-3-(8-methoxy-3-(3-methoxycyclobutyl)-[1,2,4]triazolo[4,3-a]pyridin-7-yl)phenyl)-7H-imidazo[4,5-c]pyridazine] |  | -16% | 118%
CCn1cnc2c(-c3ccc(F)c(-c4cn5cc(C6(F)CC6)nc5cc4OC)c3)cnnc21 [Example 12, 7-Ethyl-4-(4-fluoro-3-(2-(1-fluorocyclopropyl)-7-methoxyimidazo[1,2-a]pyridin-6-yl)phenyl)-7H-imidazo[4,5-c]pyridazine] | 5.79 nM | 32% | 104%
CCn1cnc2c(-c3ccc(F)c(-c4ccn5c(C6CCOC(C)(C)C6)nnc5c4OC)c3)cnnc21 (centres unmarked) [Example 16, 4-(3-(3-(2,2-Dimethyltetrahydro-2H-pyran-4-yl)-8-methoxy-[1,2,4]triazolo[4,3-a]pyridin-7-yl)-4-fluorophenyl)-7-ethyl-7H-imidazo[4,5-c]pyridazine] | 8.17 nM | -56% | 95%
CCn1cnc2c(-c3ccc(F)c(-c4ccn5c(C6CCC6)nnc5c4OC)c3)cnnc21 [Example 17, 4-(3-(3-Cyclobutyl-8-methoxy-[1,2,4]triazolo[4,3-a]pyridin-7-yl)-4-fluorophenyl)-7-ethyl-7H-imidazo[4,5-c]pyridazine] | 2.85 nM | -49% | 100%
COc1c(-c2cc(-c3cnnc4c3ncn4C(C)C)ccc2F)ccn2c(C3CC3)nnc12 [Example 27, 4-(3-(3-Cyclopropyl-8-methoxy-[1,2,4]triazolo[4,3-a]pyridin-7-yl)-4-fluorophenyl)-7-isopropyl-7H-imidazo[4,5-c]pyridazine] | 6.05 nM | 4% | 110%
CCn1cnc2c(-c3ccc(F)c(-c4ccn5c(C6COC6)nnc5c4OC)c3)cnnc21 [Example 28, 7-Ethyl-4-(4-fluoro-3-(8-methoxy-3-(oxetan-3-yl)-[1,2,4]triazolo[4,3-a]pyridin-7-yl)phenyl)-7H-imidazo[4,5-c]pyridazine] | 5.12 nM | 19% | 126%
CCn1cnc2c(-c3ccc(F)c(-c4ccn5c(C(C)C)nnc5c4OC)c3)cnnc21 [Example 29, 7-Ethyl-4-(4-fluoro-3-(8-methoxy-3-isopropyl-[1,2,4]triazolo[4,3-a]pyridin-7-yl)phenyl)-7H-imidazo[4,5-c]pyridazine] | 6.6 nM | -51% | 156%
CCc1cn2cc(-c3cc(-c4cnnc5c4ncn5CC)ccc3F)c(OC)cc2n1 [Example 30, 7-Ethyl-4-(3-(2-ethyl-7-methoxyimidazo[1,2-a]pyridin-6-yl)-4-fluorophenyl)-7H-imidazo[4,5-c]pyridazine] | 12 nM | 6% | 143%
CCn1cnc2c(-c3ccc(F)c(-c4ccn5c(C)nnc5c4OC)c3)cnnc21 [Example 32, 7-Ethyl-4-(4-fluoro-3-(8-methoxy-3-methyl-[1,2,4]triazolo[4,3-a]pyridin-7-yl)phenyl)-7H-imidazo[4,5-c]pyridazine] | 2.89 nM | -39% | 102%
CCn1cnc2c(-c3ccc(F)c(-c4ccn5c(C6CCOCC6)nnc5c4OC)c3)cnnc21 [Example 34, 7-Ethyl-4-(4-fluoro-3-(8-methoxy-3-(tetrahydro-2H-pyran-4-yl)-[1,2,4]triazolo[4,3-a]pyridin-7-yl)phenyl)-7H-imidazo[4,5-c]pyridazine] | 8.13 nM | 25% | 95%
CCn1cnc2c(-c3ccc(F)c(-c4cn5cc(C6CCOCC6)nc5cc4OC)c3)cnnc21 [Example 36, 7-Ethyl-4-(4-fluoro-3-(7-methoxy-2-(tetrahydro-2H-pyran-4-yl)imidazo[1,2-a]pyridin-6-yl)phenyl)-7H-imidazo[4,5-c]pyridazine] | 11.8 nM | 49% | 89%
CCn1cnc2c(-c3ccc(F)c(-c4ccn5c(C6CC6)nnc5c4OC)c3)cnnc21 [Example 38, 4-(3-(3-Cyclopropyl-8-methoxy-[1,2,4]triazolo[4,3-a]pyridin-7-yl)-4-fluorophenyl)-7-ethyl-7H-imidazo[4,5-c]pyridazine] | 6.53 nM | -14% | 94%
CCn1cnc2c(-c3ccc(F)c(-c4cn5cc(C(F)F)nc5cc4OC)c3)cnnc21 [Example 41, 4-(3-(2-(Difluoromethyl)-7-methoxyimidazo[1,2-a]pyridin-6-yl)-4-fluorophenyl)-7-ethyl-7H-imidazo[4,5-c]pyridazine] | 0.11 nM | 59% | 178%
